Assays:
[1] = system: replicative senescent vascular endothelial cells (HUVEC); experiment: SAβG activity staining, replicative senescent HUVEC; format: cell-based, human; settings: salinomycin treatment, 4 days; FIG. 4A, 4B
Description: (§1) After dispensing 2×10^5 cells in a 100 mm culture dish, they were cultured in a 37° C., 5% CO2 incubator. When the cells grew to 80-90% in the culture dish, the cells were removed by treatment with trypsin-EDTA, and the number of cells was measured, and the cell population doubling time (PDT) was measured.
(§2) By successively subculturing the cells in the same process as described above, replication aging was induced. PDT of young fibroblasts was 36 hours, PDT of replicative senescent fibroblasts was 12 days, PDT of young vascular endothelial cells was 24 hours, and PDT of replicative senescent vascular endothelial cells was 7 days.
After each sample was dissolved in DMSO, young cells, replicative senescent cells and senescent cells in which premature aging was induced by treating with doxorubicin were treated with 100 nM salinomycin, 100 nM rapamycin, 100 nM ABT263. After incubation for 4 days in a 37° C., 5% CO2 incubator, the degree of cell survival was confirmed by CCK-8 analysis, the degree of cellular aging was confirmed by senescence-associated β-galactosidase (SAβG) staining, p53 and p16 protein expression analysis.
The cells were washed with 1× phosphate buffer solution, and fixed with a phosphate buffer solution containing 3.7% (v/v) paraformaldehyde. […]

[2] = system: replicative senescent human fibroblasts (HDF); experiment: Western blot of p53 and p16, replicative senescent human fibroblasts; format: cell-based; settings: FIG. 2C
Description: as §1, §2
After dispensing the cells into a 60 mm culture dish, the cells were cultured overnight in an incubator at 37° C. and 5% CO2. After treatment with salinomycin, ABT263 and rapamycin, it was incubated for 3 days in a 37° C., 5% CO2 incubator. […]
The lysed cells were transferred to a 1.5 ml tube, pipetted 3-4 times, and then left on ice for 20 minutes. After centrifugation at 12,000 rpm for 20 minutes to recover the supernatant, the protein concentration of the supernatant was quantified by BCA analysis. […]

[3] = system: peritoneal fibrosis induced by chlorhexidine gluconate (CHG); experiment: Peritoneal fibrosis induced by chlorhexidine gluconate (CHG) in mice; format: in vivo, C57BL/6J mice; settings: compared to DMSO group, FIG. 9C, 9D
Description: Animal experiments were conducted with the approval of the Animal Experimental Ethics Committee of Yeungnam University College of Medicine (YUMC-AEC2018-033). Peritoneal fibrosis mice experiments were performed using a model of peritoneal fibrosis induced by chlorhexidine gluconate (CHG) (Yoshio Y et al., Kidney international. 2004).
From the 9th day, 2.5 μl of 10 mM salinomycin (Sal group) or 2.5 μl of DMSO (DMSO group) was diluted in 100 μl phosphate buffer solution and intraperitoneally injected at intervals of 2 days.
As a negative control (NT group), 100 μl of a 15% ethanol phosphate buffer solution was injected intraperitoneally instead of a 0.1% CHG solution. On the 20th day, the mice were sacrificed, the peritoneal tissue was excised, and the tissue was fixed in 4% paraformaldehyde solution.
The tissue fixed in 10% formalin solution was embedded with paraffin and cut into 4 μm to prepare a tissue sample. After removing paraffin from the tissue sample, hematoxylin-eosin staining, trichrome staining, and PAS staining were performed.
The degree of fibrosis was measured by analyzing the degree of collagen staining using the i-Solution™ software program (IMT Inc., Canada) after trichrome staining and the degree of cell senescence in tissue samples was investigated by staining lipofuscin with Sudan black B (Viegas M S, et al., European journal of histochemistry: EJH. 2007). […]

SMILES: CC[C@@H](C(=O)[C@@H](C)[C@@H](O)[C@H](C)[C@@H]1O[C@@H]([C@@H](CC)C(=O)O)CC[C@@H]1C)[C@H]1O[C@]2(C=C[C@@H](O)[C@]3(CC[C@@](C)([C@H]4CC[C@](O)(CC)[C@H](C)O4)O3)O2)[C@H](C)C[C@@H]1C [salinomycin]
- SAβG activity [1]: decreased
- expression of p16 protein (Western blot) [2]: reduced
- expression of p53 protein (Western blot) [2]: reduced
- thickness of the peritoneal mesothelial cell layer ([3]; 2.5 μl of 10 mM salinomycin in 100 μl phosphate buffer i.p. at 2-day intervals from 9th day): significantly reduced
- degree of peritoneal fibrosis ([3]; i.p. at 2-day intervals from 9th day): decreased
